Source: US20210322376A1, “METHODS FOR REDUCING THE RISK OF DIABETES IN PATIENTS BEING TREATED FOR HIGH CHOLESTEROL-RELATED ILLNESSES” (Esperion Therapeutics, Inc., priority 2018, published 2021)

Key:
[1] = Example 1: bempedoic acid vs placebo, patients with a history of diabetes on MTD statin, 52 weeks (HbA1c, fasting glucose); format: in vivo, human; conditions: background MTD statin (50% high intensity), FIG. 2 and FIG. 3
Text: (§1) Patients with diabetes were identified primarily through medical history and/or baseline lab results. No entry restrictions were placed on these patients with the exception of having a HbA1c <10% during screening. The use of background concomitant medications related to diabetes treatment was captured at the study outset. Changes in all concomitant medications were tracked during the treatment phase. No restrictions were placed on changes in diabetes medications (stopping, starting, or changing dose) during the trial.
2230 total patients were receiving background MTD statin (50% high intensity) for 52 weeks. […] Patients were treated with bempedoic acid or placebo. The baseline HbA1c levels for patients receiving bempedoic acid was 6.85%, and the baseline HbA1c levels for patients receiving placebo was 6.89%. The baseline fasting glucose levels for patients receiving bempedoic acid was 131.4 mg/dl. The baseline fasting glucose levels for patients receiving placebo was 130.6 mg/dl. Changes in HbA1c levels were measured at week 12 and week 52 and changes in fasting glucose levels were measured at weeks 4, 8, 12, 24, and 36 and 52.

[2] = Example 2: bempedoic acid vs placebo, statin-intolerant patients with a history of diabetes, 24 weeks; format: in vivo, human; conditions: statin intolerant (8% very low dose statin), FIG. 4 and FIG. 5
Text: as §1
345 total patients with statin intolerance (8% very low dose statin) were treated for 24 weeks. […] Patients were treated with bempedoic acid or placebo. The baseline HbA1c levels for patients receiving bempedoic acid was 6.91%, and the baseline HbA1c levels for patients receiving placebo was 7.12%. The baseline fasting glucose levels for patients receiving bempedoic acid was 130.7 mg/dl. The baseline fasting glucose levels for patients receiving placebo was 139.8 mg/dl. Changes in HbA1c levels were measured at week 12 and week 24 and changes in fasting glucose levels were measured at weeks 4, 12, and 24.

[3] = Example 3: bempedoic acid vs placebo, statin-intolerant patients on background ezetimibe, 12 weeks; format: in vivo, human; conditions: statin intolerant (31% low/very low dose statin), FIG. 6 and FIG. 7
Text: as §1
269 total patients with statin intolerance (31% low/very dose statin) were treated for 12 weeks; all patients on background ezetimibe therapy. […] Patients were treated with bempedoic acid or placebo. The baseline HbA1c levels for patients receiving bempedoic acid was 6.66%, and the baseline HbA1c levels for patients receiving placebo was 6.76%. The baseline fasting glucose levels for patients receiving bempedoic acid was 133.7 mg/dl. The baseline fasting glucose levels for patients receiving placebo was 133.4 mg/dl. Changes in HbA1c levels were measured at week 12, and changes in fasting glucose levels were measured at weeks 4, 8, and 12.

[4] = Cumulative data of Examples 1-4: new onset or worsening of diabetes; format: in vivo, human; conditions: patients taking statins plus bempedoic acid; statins plus placebo 5.6%
[5] = Pharmacokinetics of ETC-1002; conditions: human, in vivo
Procedure: In some aspects, the methods herein provide for treating cardiovascular disease and/or reducing the risk of cardiovascular disease in a subject comprising administering an amount of a composition comprising ETC-1002 which is rapidly absorbed having a Tmax at less than about 4 hours.

[6] = Thorough QT/QTc (TQT) study of ETC-1002; format: in vivo
[7] = Muscle-related adverse events with add-on ETC-1002 therapy to statin therapy; format: in vivo
Text: In some aspects, the subject experiences an adverse event when on one or more statins at the lowest FDA approved dose, said adverse events being selected form the group consisting of muscle-related pain, aches, weakness, and cramping.

SMILES: CC(C)(CCCCCC(O)CCCCCC(C)(C)C(=O)O)C(=O)O [ETC-1002, 8-hydroxy-2,2,14,14 tetramethylpentadecanedioic acid]
- incidence of diabetes-related phenotypes, worsening of diabetes, new onset of diabetes [1]: reduces the incidence of diabetes-related phenotypes, worsening of diabetes, and new onset of diabetes relative to placebo
- incidence of diabetes-related phenotypes, worsening of diabetes, new onset of diabetes [2]: reduces incidence of diabetes-related phenotypes, worsening of diabetes, and new onset of diabetes relative to placebo
- incidence of diabetes-related phenotypes, worsening of diabetes, new onset of diabetes [3]: reduces the incidence of diabetes-related phenotypes, worsening of diabetes, and new onset of diabetes relative to placebo
- frequency of new onset or worsening of diabetes and diabetes-related symptoms [4]: 4%
- Tmax ([5]; rapidly absorbed): < 4 h
- half-life ([5]; systemic exposure, AUCtau,ss): 15 to 27 h
- QTc or QT/QTc prolongation ([6]; TQT study): does not prolong QTc or QT/QTc
- heart rate and PR and QRS intervals ([6]; add-on ETC-1002 therapy): does not affect subject heart rate and PR and QRS intervals
- muscle-related adverse events that began or increased during statin therapy [7]: significantly lowered or even resolved
